Laboratory results taken from publication PMC3735840 (ACS chemical biology, 2013).

Tests used:
enzyme I (EI) [1] = molecular target: enzyme I (EI) (Escherichia coli, UniProt P08839, R465A); experiment: NMR chemical shift titration; type: binding
enzyme I (EI) [2] = molecular target: enzyme I (EI) (Escherichia coli, UniProt P08839); experiment: NMR chemical shift titration; type: binding
C=C(OP(=O)(O)O)C(=O)O = experiment: steady-state enzyme kinetics of the R465A EIC mutant with PEP; type: biochemical, Escherichia coli; details: Mg2+ active site of the C-terminal domain

O=C(O)CCC(=O)C(=O)O [αKG, α-ketoglutarate]
Kd (enzyme I (EI) [1]): ~6.7 mM | Kd (enzyme I (EI) [2]): ~2.2 mM

enzyme I (EI) (Escherichia coli K-12; R465A)
Km (C=C(OP(=O)(O)O)C(=O)O): 1600 ± 400 µM
